Experiments:
Format in all cases: in vivo
Settings in all cases: active ingredient amount 31 g/ha, 14th day after application
[1] = tested on: corn (Zea mays L.); assay: Test Example 2: soil application on the day after sowing, growth inhibition rate on 14th day
Procedure, shortened: (§1)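 Pre-emergence soil spray on upland soil the day after sowing; wettable powder or emulsifiable concentrate diluted in water at 1,000 L/ha, dosed to prescribed active-ingredient amounts. Visual growth inhibition scored 14 days after application, 0 (untreated-equivalent) to 100 (complete kill).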

[2] = tested on: soybean (Glycine max Merr.); assay: as above
Procedure, shortened: as §1

[3] = tested on: velvetleaf (Abutilon theophrasti MEDIC.); assay: as above
Procedure, shortened: as §1

[4] = tested on: prickly sida (Sida spinosa L.); assay: as above
Procedure, shortened: as §1

[5] = tested on: crabgrass (Digitaris sanquinalis L.); assay: as above
Procedure, shortened: as §1

[6] = tested on: wheat (Triticum aestivum L.); assay: as above
Procedure, shortened: as §1

[7] = tested on: redroot pigweed (Amaranthus retroflexus L.); assay: as above
Procedure, shortened: as §1

[8] = tested on: barnyardgrass (Echinochloa crus-qalli L.); assay: as above
Procedure, shortened: as §1

[9] = tested on: green foxtail (Setaria viridis L.); assay: as above
Procedure, shortened: as §1

[10] = tested on: rice (Oryza sativa L.); assay: as above
Procedure, shortened: as §1

[11] = tested on: wild oat (Avena fatua L.); assay: Test Example 1: foliar treatment, growth inhibition rate on 14th day
Procedure, shortened: (§2)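 Plants in upland soil were sprayed on the foliage at early leaf stages (wild oat 0.4–1.2, rice 0.2–2.7, green foxtail 0.5–3.2, soybean primary leaf) with wettable powder or emulsifiable concentrate formulations. Spray volume was 1,000 L/ha water containing 0.1 vol% spreader, at prescribed active-ingredient rates. Growth inhibition (0 = untreated, 100 = complete kill) was scored visually on day 14.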

[12] = tested on: italian ryegrass (Lolium multiflorum Lam.); assay: as above
Procedure, shortened: (§3)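 Using a small sprayer, formulated compound in water (0.1 vol % surfactant, 1,000 L/ha) was applied to seedlings grown from seed in upland soil. Fourteen days on, growth state was observed and expressed as percent inhibition from 0 to 100.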

[13] = tested on: corn (Zea mays L.); assay: as above
Procedure, shortened: as §3

[14] = tested on: soybean (Glycine max Merr.); assay: as above
Procedure, shortened: as §2

[15] = tested on: crabgrass (Digitaria sanquinalis L.); assay: as above
Procedure, shortened: as §3

[16] = tested on: wheat (Triticum aestivum L.); assay: as above
Procedure, shortened: as §3

[17] = tested on: redroot pigweed (Amaranthus retroflexus L.); assay: as above
Procedure, shortened: as §3

[18] = tested on: barnyardgrass (Echinochloa crus-qalli L.); assay: as above
Procedure, shortened: as §3

[19] = tested on: green foxtail (Setaria viridis L.); assay: as above
Procedure, shortened: as §2

[20] = tested on: rice (Oryza sativa L.); assay: as above
Procedure, shortened: as §2

Compound | Growth inhibition rate (%) Corn [1] [%] | Growth inhibition rate (%) Soybean [2] [%] | Growth inhibition rate (%) Velvetleaf [3] [%] | Growth inhibition rate (%) Prickly sida [4] [%] | Growth inhibition rate (%) Crabgrass [5] [%] | Growth inhibition rate (%) Wheat [6] [%] | Growth inhibition rate (%) Redroot pigweed [7] [%] | Growth inhibition rate (%) Barnyardgrass [8] [%] | Growth inhibition rate (%) Green foxtail [9] [%] | Growth inhibition rate (%) Rice [10] [%] | Growth inhibition rate (%) Wild oat [11] [%] | Growth inhibition rate (%) Italian ryegrass [12] [%] | Growth inhibition rate (%) Corn [13] [%] | Growth inhibition rate (%) Soybean [14] [%] | Growth inhibition rate (%) Crabgrass [15] [%] | Growth inhibition rate (%) Wheat [16] [%] | Growth inhibition rate (%) Redroot pigweed [17] [%] | Growth inhibition rate (%) Barnyardgrass [18] [%] | Growth inhibition rate (%) Green foxtail [19] [%] | Growth inhibition rate (%) Rice [20] [%]
Cc1nn(C)c(=O)c(-c2cc(Oc3ncc(C(F)(F)F)cc3Cl)ccc2OC(F)(F)F)c1O [1-163] | 80 | 0 | 0 | 0 | 100 | 0 | 0 | 100 | 100 | 40 | 100 | 99 | 100 | 0 | 100 | 60 | 0 | 100 | 100 | 75
CCn1nc(C)c(OC(C)=O)c(-c2cc(Oc3ncc(C(F)(F)F)cc3Cl)ccc2C)c1=O [1-165] | 0 | 0 | 0 | 0 | 100 | 0 | 0 | 99 | 95 | 0 | 100 | 100 | 100 | 0 | 100 | 95 | 0 | 100 | 100 | 83
Cc1c(Oc2ncc(C(F)(F)F)cc2Cl)cccc1-c1c(O)cnn(CC2CC2)c1=O [1-166] | 0 | 0 | 0 | 0 | 95 | 0 | 0 | 80 | 80 | 0 | 93 | 30 | 98 | 15 | 99 | 10 | 0 | 95 | 100 | 10
C=CCn1ncc(O)c(-c2cc(Oc3ncc(C(F)(F)F)cc3Cl)ccc2C)c1=O [1-167] | 0 | 0 | 0 | 0 | 100 | 0 | 0 | 85 | 95 | 0 | 98 | 93 | 100 | 10 | 99 | 40 | 0 | 98 | 100 | 35
CC(=O)Oc1cnn(CC2CC2)c(=O)c1-c1cccc(Oc2ncc(C(F)(F)F)cc2Cl)c1C [1-170] | 0 | 0 | 0 | 0 | 93 | 0 | 0 | 75 | 98 | 0 | 40 | 30 | 99 | 0 | 99 | 0 | 10 | 95 | 98 | 40
CC(=O)Oc1cnn(C)c(=O)c1-c1cc(Oc2ncc(C(F)(F)F)cc2Cl)ccc1C [1-171] | 0 | 0 | 0 | 0 | 100 | 0 | 0 | 100 | 100 | 0 | 100 | 100 | 100 | 0 | 100 | 83 | 0 | 100 | 100 | 85
CCc1ccc(Oc2ncc(C(F)(F)F)cc2Cl)cc1-c1c(O)cnn(CC)c1=O [1-173] | 50 | 0 | 0 | 0 | 100 | 0 | 0 | 100 | 100 | 60 | 100 | 95 | 99 | 0 | 100 | 35 | 0 | 100 | 100 | 60
CCc1ccc(Oc2ncc(C(F)(F)F)cc2Cl)cc1-c1c(OC(C)=O)cnn(CC)c1=O [1-174] | 0 | 0 | 0 | 0 | 100 | 0 | 0 | 100 | 100 | 0 | 100 | 93 | 100 | 0 | 100 | 75 | 0 | 100 | 100 | 20
Cc1ccc(Oc2ccc(C(F)(F)F)cn2)cc1-c1c(O)c(C)nn(C)c1=O [Compound 2-3] | 0 | 0 | 0 | 0 | 80 | 0 | 0 | 50 | 98 | 20 | 35 | 20 | 10 | 10 | 15 | 30 | 0 | 85 | 85 | 10

— patent US10870638B2, “Pyridazinone compound or its salt, and herbicide containing it” (ISHIHARA SANGYO KAISHA, LTD., priority 2016, dated 2020)
